Tests used:
[1] = target: T1, human leukocytic elastase (HLE) (Homo sapiens, UniProt P08246); test: anti-elastase test: spectrophotometric hydrolysis of N-methoxysuccinyl-alanine-proline-valine-para-nitroanilide at 410 nm; type: biochemical; conditions: test concentration 0.001% palmitoylproline alone; 25° C.
T1 sequence (P08246 30-267): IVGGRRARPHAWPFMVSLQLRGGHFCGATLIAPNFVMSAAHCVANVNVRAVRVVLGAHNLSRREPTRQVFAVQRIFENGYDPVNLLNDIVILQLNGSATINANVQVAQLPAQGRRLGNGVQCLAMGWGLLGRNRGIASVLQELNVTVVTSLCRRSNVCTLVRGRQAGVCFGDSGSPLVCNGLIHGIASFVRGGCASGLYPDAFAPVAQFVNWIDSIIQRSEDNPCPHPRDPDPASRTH
Protocol: The reaction is carried out in a spectrophotometer, thermostatically maintained at 25° C., fitted with a sample changer. All the kinetics are carried out at least three times, the average and the standard deviation then being calculated for the three values obtained. […] A correlation thus exists between the percentage of inhibition of the formation of the coloured product by the test compound and the percentage of inhibition of human leukocytic elastase. The percentage of inhibition thus calculated is also representative of the calmant activity of the test compound.

[2] = anti-free-radical test: xanthine oxidase/xanthine, rate of reduction of cytochrome C at 550 nm; type: biochemical; conditions: test concentration 0.0062% palmitoylproline alone; 25° C.
Description: The determination of the anti-free-radical effect is based on the inhibition or the decrease in the rate of reduction of cytochrome C, by adding a test molecule to the reaction medium. The superoxide anion is generated by the action of xanthine oxidase on xanthine. In the absence of a molecule capable of capturing it, it results in the reduction of cytochrome C. The formation of reduced cytochrome C is monitored by a spectrophotometer, at 550 nm in the presence (Test) and in the absence (Control) of anti-free-radical molecules.
The reaction takes place in a spectrophotometer thermostatically adjusted to 25° C. and fitted with a sample changer. All of the kinetics are carried out at least three times; the average and the standard deviation are calculated for the three values obtained. A percentage of inhibition of the rate of formation of the coloured product (corresponding to the amount of free superoxide anion) will thus be calculated for each active agent tested. […] The percentage of inhibition of the formation of the coloured product by the active agent will thus correspond to its percentage of inhibition of the superoxide anion.

% of anti-elastase inhibition [1]: 22%
% of anti-free-radical inhibition [2]: 38%
Structure (SMILES): CCCCCCCCCCCCCCCC(=O)N1CCC[C@H]1C(=O)O [Palmitoylproline, N-palmitoylproline]

Source: patent publication US6296859A, “Synergistic composition comprising a compound of lipoamino acid structure and a water lily extract” (Societe d'Exploitation de Produits pour les Industries …, priority 1998, dated 2001)
